# Test results reported in paper PMC6753678, “Fueling Open Innovation for Malaria Transmission-Blocking Drugs: Hundreds of Molecules Targeting Early Parasite Mosquito Stages” (Frontiers in Microbiology, 2019).
# Read-outs that look alike come from different tables or passages of the source.
# Assays:
# [1] = system: P. falciparum female gametocytes; assay: P. falciparum female gametogenesis assay (Pf FGAA); conditions: 1: YES; 0: NO
# HepG2 cells = conditions: cited from earlier work
# [2] = system: P. falciparum female gametocytes; parameters: method as in Miguel-Blanco et al 2017; conditions: TCAMS library screen; ref Miguel-Blanco et al 2017; read-out: Pf FGAA IC50; cited from earlier work
# [3] = HepG2 value reported with Pf FGAA screen, ref Miguel-Blanco et al 2017
Structure (SMILES),Is compound selective in assay? Pf FGAA active? [1],HepG2 cytoxicity (Pf FGAA screen) (HepG2 cells; [3]) [µM],IC50 [2] [nM],HepG2 cytoxicity (Pf FGAA screen) (HepG2 cells) [µM]
O=C(Nc1nc(-c2ccccn2)cs1)c1ccc(Br)s1 [TCMDC-123868],1 (1: YES),37.44,1160,–
CCCC(=O)NC(c1ccc(C(C)C)cc1)c1ccc2cccnc2c1O (stereo not drawn) [TCMDC-123884],1 (1: YES),>100,1540,–
CCOc1ccc(-n2nc3c(Cl)nnc(-c4ccccc4)c3c2-c2ccccc2)cc1 [TCMDC-123899],1 (1: YES),>100,940,–
OCCN1CCN(c2ccc(Nc3ccnc4cc5ccccc5cc34)cc2)CC1 [TCMDC-123915],0 (0: NO),5.43,3340,–
CCc1cc2c(Sc3nnc(N)s3)ncnc2s1 [TCMDC-123993],1 (1: YES),32.30,730,–
Cc1cc(I)ccc1Nc1nc2nonc2nc1Nc1ccc(I)cc1C [TCMDC-124083],0 (0: NO),0.93,1080,–
FC(F)(F)c1cccc(Nc2nc3ccccc3nc2Nc2cccc(C(F)(F)F)c2)c1 [TCMDC-124162],0 (0: NO),17.68,2400,–
CC(C)C1=CC(=NOS(=O)(=O)c2ccccc2)C=C(C(C)C)C1=O [TCMDC-124172],1 (1: YES),21.70,880,–
CCN1CCN(c2ccc(Nc3c4ccccc4nc4ccccc34)cc2)CC1 [TCMDC-124255],0 (0: NO),4.57,1000,–
Cc1ccc(Cl)c2sc(N3CCN(C(=O)c4ccc([N+](=O)[O-])o4)CC3)nc12 [TCMDC-124311],1 (1: YES),25.79,1440,–
Cc1ccc(C)c2sc(N3CCN(C(=O)c4ccc([N+](=O)[O-])o4)CC3)nc12 [TCMDC-124315],1 (1: YES),37.65,1120,–
O=C(c1ccc([N+](=O)[O-])o1)N1CCN(c2nc3c(Cl)cccc3s2)CC1 [TCMDC-124316],1 (1: YES),41.96,1100,–
CC(C)(C)Nc1cc(C2CC2)nc(-c2ccccn2)n1 [TCMDC-124453],1 (1: YES),>100,100,–
O=C(Nc1ccc([N+](=O)[O-])cc1)Nc1cc(OCC(F)(F)F)cc(OCC(F)(F)F)c1 [TCMDC-124533],0 (0: NO),6.24,1160,–
CC1Cc2ccccc2N1S(=O)(=O)c1cccc(C(=O)Nc2nc(-c3ccccn3)cs2)c1 (stereo not drawn) [TCMDC-124559],1 (1: YES),50.12,340,–
c1ccn2c(Sc3ncnc4sccc34)ncc2c1 [TCMDC-124602],1 (1: YES),>100,240,–
Cl.Clc1cc(Br)ccc1-c1ccc(CNCC2CCNCC2)o1 [TCMDC-124617],0 (0: NO),4.37,720,–
CN1CCC(N2CCC(Oc3cccc(C(=O)NCCCC4CCCC4)c3)CC2)CC1 [TCMDC-124677],0 (0: NO),4.90,1470,–
Cc1ccc2c(c1)c(C1CCN(C(=O)c3ccc([N+](=O)[O-])o3)CC1)cn2C [TCMDC-124787],1 (1: YES),28.85,2120,–
Cc1sc2nc(CN3CCCC3)nc(-n3c(NCCO)nc4ccccc43)c2c1C [TCMDC-124811],0 (0: NO),25.73,7050,–
C=CCc1cccc(CN2CCC(c3cc(=O)[nH]c(-c4ccccn4)n3)CC2)c1O [TCMDC-124851],0 (0: NO),11.49,1740,–
CCCc1cc(=O)[nH]c(-n2nc(C)cc2NC(=O)CC(c2ccccc2)c2ccccc2)n1 [TCMDC-124940],1 (1: YES),>100,1300,–
COc1ccc(NC(=O)Nc2ccc(Nc3nc(C)cc(N4CCCC4)n3)cc2)cc1 [TCMDC-124958],1 (1: YES),11.89,1080,–

Structure (SMILES),Is compound selective in assay? Pf FGAA active? [1],HepG2 cytoxicity (Pf FGAA screen) (HepG2 cells; [3]) [µM],IC50 [2] [nM],HepG2 cytoxicity (Pf FGAA screen) (HepG2 cells) [µM]
O=C(c1ccc([N+](=O)[O-])o1)N1CCN(c2nc3c(F)cc(F)cc3s2)CC1 [TCMDC-125149],1 (1: YES),>100,1310,–
CNCCCNCc1ccc(-c2ccc(F)c(Cl)c2)o1.Cl [TCMDC-125237],0 (0: NO),10.60,1870,–
COc1cc(OC)cc(C(=O)Nc2nc(-c3ccccn3)cs2)c1 [TCMDC-125345],1 (1: YES),39.82,360,–
CC(Nc1cc(-c2ccccn2)nc(-c2ccccn2)n1)c1ccccc1 (stereo not drawn) [TCMDC-125420],1 (1: YES),6.18,210,–
c1ccc(CNc2cc(-c3ccccn3)nc(-c3ccccn3)n2)cc1 [TCMDC-125421],1 (1: YES),13.04,320,–
Fc1ccc2nc(Nc3nc(-c4ccccn4)cs3)sc2c1 [TCMDC-125540],1 (1: YES),58.31,54.3,–
Oc1c(C(Nc2ccccn2)c2ccc(Cl)cc2Cl)ccc2cccnc12 (stereo not drawn) [TCMDC-125559],1 (1: YES),12.74,1140,–
O=C(Nc1cc(C(F)(F)F)cc(C(F)(F)F)c1)Nc1ccc(Cl)c(Cl)c1 [TCMDC-125592],0 (0: NO),3.07,1430,–
ON=C(c1nc2ccccc2[nH]1)c1nc2ccccc2[nH]1 [TCMDC-125758],1 (1: YES),4.96,330,–
c1ccc(-c2nc(NC3CCCCC3)cc(C3CC3)n2)nc1 [TCMDC-125825],1 (1: YES),48.99,160,–
CC(C)(C)c1cc(NC2CC2)nc(-c2ccccn2)n1 [TCMDC-125826],1 (1: YES),>100,120,–
CCN(CCNS(C)(=O)=O)c1ccc(N)c(C)c1.O.O=S(=O)(O)O [TCMDC-125836],1 (1: YES),26.14,1140,–
Br.Oc1ccc(CCNCCCCCCNCCc2ccc(-c3ccccc3)cc2)cc1O [TCMDC-131268],0 (0: NO),13.18,10900,–
Br.CC(C)(Cc1ccc(Cl)cc1)NCCCCCCNCCc1ccc(O)c(O)c1 [TCMDC-131277],0 (0: NO),10.97,9660,–
C[C@H](Cc1ccc(OCCCCCCOc2ccc(C[C@@H](C)N[C@H](C)c3ccccc3)cc2)cc1)NC[C@H](O)c1cccc(Cl)c1.Cl [TCMDC-131564],0 (0: NO),4.28,720,–
Br.CCc1c(CCNCCCCCCNCCc2ccc(Br)cc2)ccc(O)c1O [TCMDC-132044],0 (0: NO),7.96,1300,–
Cc1c2ccncc2c(C)c2c1[nH]c1cc(Cc3ccccc3)c(O)cc12 [TCMDC-132053],0 (0: NO),1.23,1090,–
CCc1c(CCNC/C=C/C=C/CNCCc2ccc(OC)c(OC)c2CC)ccc(OC)c1OC.Cl [TCMDC-132061],0 (0: NO),4.68,2560,–
CCc1c(CCNCCCCCNCCc2ccc(OC)c(OC)c2CC)ccc(OC)c1OC.Cl [TCMDC-132064],0 (0: NO),4.68,2050,–
CCc1c(CCNCCCCCCNCCc2ccc3c(c2C)OCO3)ccc2c1OCO2.Cl [TCMDC-132093],0 (0: NO),3.89,1020,–
Cl.N#Cc1c(F)cc(N2CCC(NCC[C@H](N)Cc3ccc(F)c(F)c3)CC2)cc1F [TCMDC-132121],0 (0: NO),–,730,4.58
CN(C)Cc1cccc2nc(-c3csc(Cc4cc(Cl)ccc4OCc4ccccc4)n3)[nH]c12 [TCMDC-132174],0 (0: NO),13.04,2100,–
O=C(O)C(F)(F)F.O=S(=O)(NCCN1CCCC1)c1ccc(-c2cccc(CNC3Cc4ccccc4C3)c2)cc1 [TCMDC-132215],0 (0: NO),6.03,2540,–
